Values joined by “and” are separate entries in the source; they are usually repeats but may differ in a detail not shown here. Identical values can stand only once. Square brackets hold non-standard residues; d marks the D form. Peptide text beside a SMILES is read from it. Hyp = O=C(O)[C@@H]1C[C@@H](O)CN1
Molecular target: T1, recombinant human cGAS enzyme (hcGAS-ΔN, residues 147–522) (Homo sapiens, UniProt Q8N884)
T1 construct: N-terminally truncated human cGAS (hcGAS-ΔN, residues 147–522); 6xHis-SUMO (N, cleaved yes); made in house; host or cells: Escherichia coli BL21 (DE3)
Test: RNA-based fluorescent biosensor assay of cGAS activity (2',3'-cGAMP formation), in vitro screening
Format: biochemical
Conditions: for Remaining activity (%), Fig. 1a source data / remaining activity at 20 µM: 20 μM, replicate values; for remaining activity at 20 µM: read-out: Remaining activity (%), Fig. 1a source data; for inhibition at 20 µM: peptides screened at 20 μM, Supplementary Table 1 / Fig. S5b, read-out: Inhibition %
From the text: To screen direct cGAS inhibitors targeting protein-DNA interface from our developed focused library of macrocyclic peptides, we applied an RNA-based fluorescent biosensor for 2’,3’-cGAMP to detect cGAS activity in vitro (Supplementary Fig. 1a)[49]. The formation of 2’,3’-cGAMP from ATP and GTP was catalyzed by recombinant human cGAS enzyme (hcGAS-ΔN, residues 147–522, Supplementary Fig. 1b) in the presence of ISD (interferon stimulatory DNA, a 45-bp dsDNA), which was readily quantified by the RNA-based fluorescent biosensor and was further confirmed by ion exchange chromatography (Supplementary Fig. 1c). […] Subsequently, a total of 90 macrocyclic peptides were screened at a concentration of 20 μM (Fig. 1a and Supplementary Fig. 1e), and 4 hits (XQ2, XQ8, XQ19, and XQ46) were obtained for further testing at a cut-off of 40% inhibition (Supplementary Table 1). To evaluate the inhibitory effect of the hits against cGAS in cells, we employed real-time quantitative PCR (qPCR) to examine mRNA levels of IFNΒ1 in THP1 cells. The reported cGAS inhibitor RU.521 was used as the positive control, and the non-active peptide XQ28 in the screening assay was used as the negative control. […] The inhibition of cGAS by these hits was further confirmed in the reporter cell line THP1-Lucia ISG (Invivogen) that expresses secreted luciferase induced by an IRF3-inducible ISG54 promoter (Fig. 1c). The discrepancy between the inhibitory effect of the hits in protein and cellular assays may be attributed to their different cellular permeability.
The high-throughput screening (HTS) experiments of cGAS activity are based on the method previously described. To initiate the enzyme reaction, ISD was added to the reaction solution (40 mM Tris-HCl, pH 7.5, 100 mM NaCl, 10 mM MgCl2) containing hcGAS-ΔN, ATP (Sangon Biotech, Cat# A600311) and GTP (Sangon Biotech, Cat# A620332) in a total volume of 20 ul with the final concentration of 0.5 μM, 1.5 μM, 1 mM, 1 mM, respectively, and incubated for 2 h at 37 °C. For HTS experiments, compounds were added to the same reaction conditions as described above with the final concentration of 20 μM. Z’ factors were calculated from three replicates in the 384-well plate.

T1 sequence (Q8N884 147-522, stated change not applied): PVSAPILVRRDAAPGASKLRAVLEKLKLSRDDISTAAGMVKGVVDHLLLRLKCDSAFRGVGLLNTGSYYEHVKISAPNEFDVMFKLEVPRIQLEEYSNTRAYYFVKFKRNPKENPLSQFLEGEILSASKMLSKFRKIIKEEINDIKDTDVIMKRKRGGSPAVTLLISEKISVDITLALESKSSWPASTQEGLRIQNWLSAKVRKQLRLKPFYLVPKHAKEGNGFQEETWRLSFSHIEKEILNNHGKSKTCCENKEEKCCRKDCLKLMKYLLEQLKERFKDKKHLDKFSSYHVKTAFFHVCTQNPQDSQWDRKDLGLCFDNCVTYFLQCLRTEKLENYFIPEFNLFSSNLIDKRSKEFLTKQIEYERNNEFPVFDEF

| Structure (SMILES) | Remaining activity (%), Fig. 1a source data | remaining activity at 20 µM [%] | inhibition at 20 µM [%] |
| --- | --- | --- | --- |
| CC(C)C[C@@H]1NC(=O)[C@H](CCCNC(=N)N)NC(=O)[C@H](C(C)C)NC(=O)[C@@H]2CCCN2C(=O)[C@@H](Cc2ccccc2)NC(=O)[C@H](C)NC(=O)[C@H](CCCNC(=N)N)NC(=O)[C@H](C(C)C)NC(=O)[C@@H]2CCCN2C(=O)[C@@H](C)NC1=O [XQ21, Cyclo (AfPVRLaPVR)] (cyclo(A[dF]PVRL[dA]PVR)) | 107.409% and 108.531% | 108 | 0 |
| CC(C)[C@@H]1NC(=O)[C@@H]2CCCN2C(=O)[C@@H](C)NC(=O)[C@H](C)NC(=O)[C@H](CCCNC(=N)N)NC(=O)[C@H](C(C)C)NC(=O)[C@@H]2CCCN2C(=O)[C@@H](Cc2ccccc2)NC(=O)[C@H](C)NC(=O)[C@H](CCCNC(=N)N)NC1=O [XQ22, Cyclo (AaPVRAfPVR)] (cyclo(A[dA]PVRA[dF]PVR)) | 99.3962% and 98.6078% | 102 | 0 |
| CC(C)C[C@H]1NC(=O)[C@H](Cc2ccccc2)NC(=O)[C@H]2CCCN2C(=O)[C@@H]([C@H](C)O)NC(=O)[C@@H](CCCNC(=N)N)NC(=O)[C@@H](CC(C)C)NC(=O)[C@H](Cc2ccccc2)NC(=O)[C@H]2CCCN2C(=O)[C@@H](C(C)C)NC(=O)[C@@H](CCCNC(=N)N)NC1=O [XQ23, Cyclo (tpFlrvpFlr)] (cyclo(F[dL][dR][dT][dP]F[dL][dR][dV][dP])) | 103.183% and 102.415% | 103 | 0 |
| CC(C)C[C@H]1NC(=O)[C@H](Cc2ccccc2)NC(=O)[C@H]2CCCN2C(=O)[C@@H]([C@H](C)O)NC(=O)[C@@H](CCCNC(=N)N)NC(=O)[C@@H](CC(C)C)NC(=O)[C@H](Cc2ccccc2)NC(=O)[C@H]2CCCN2C(=O)[C@@H]([C@H](C)O)NC(=O)[C@@H](CCCNC(=N)N)NC1=O [XQ24, Cyclo (tpFlrtpFlr)] (cyclo(F[dL][dR][dT][dP]F[dL][dR][dT][dP])) | 93.4684% and 95.0442% | 94.2 | 5 |
| CC(C)C[C@@H]1NC(=O)[C@H](CCCNC(=N)N)NC(=O)[C@@H]2CCCN2C(=O)[C@@H](Cc2ccccc2)NC(=O)[C@H](CCCNC(=N)N)NC(=O)[C@H](C(C)C)NC(=O)[C@@H]2CCCN2C(=O)[C@@H](Cc2ccccc2)NC1=O [XQ25, Cyclo (fPVRfPRL)] (cyclo(L[dF]PVR[dF]PR)) | 114.007% and 112.821% | 112 | 0 |
| N=C(N)NCCC[C@@H]1NC(=O)[C@@H]2CCCN2C(=O)[C@@H](Cc2ccccc2)NC(=O)[C@H](CCCNC(=N)N)NC(=O)[C@@H]2CCCN2C(=O)[C@@H](Cc2ccccc2)NC1=O [XQ26, Cyclo (PRfPRf)] (cyclo(PR[dF]PR[dF])) | 116.041% and 118.595% | 116 | 0 |
| N=C(N)NCCC[C@@H]1NC(=O)[C@@H]2CCCN2C(=O)[C@H](Cc2ccccc2)NC(=O)[C@H](CCCNC(=N)N)NC(=O)[C@@H]2CCCN2C(=O)[C@@H](Cc2ccccc2)NC1=O [XQ27, Cyclo (RfPRFP)] (cyclo(FPR[dF]PR)) | 109.194% and 109.746% | 107 | 0 |
| CC(C)C[C@@H]1NC(=O)[C@H](CCCNC(=N)N)NC(=O)[C@H]([C@@H](C)O)NC(=O)[C@@H]2CCCN2C(=O)[C@@H](Cc2ccccc2)NC(=O)[C@H](Cc2ccccc2)NC(=O)[C@H](CCCNC(=N)N)NC(=O)[C@H]([C@@H](C)O)NC(=O)[C@@H]2CCCN2C(=O)[C@@H](Cc2ccccc2)NC1=O [XQ29, Cyclo (FfPTRLfPTR)] (cyclo(F[dF]PTRL[dF]PTR)) | 92.9858% and 93.5702% | 92.7 | 7 |
| CC(C)C[C@@H]1NC(=O)[C@H](CCCNC(=N)N)NC(=O)[C@H]([C@@H](C)O)NC(=O)[C@@H]2CCCN2C(=O)[C@@H](Cc2ccccc2)NC(=O)[C@H](C(C)C)NC(=O)[C@H](CCCNC(=N)N)NC(=O)[C@H]([C@@H](C)O)NC(=O)[C@@H]2CCCN2C(=O)[C@@H](Cc2ccccc2)NC1=O [XQ30, Cyclo (VfPTRLfPTR)] (cyclo(L[dF]PTRV[dF]PTR)) | 93.0523% and 92.7481% | 93.2 | 7 |
| CC(C)C[C@@H]1NC(=O)[C@H](CCCNC(=N)N)NC(=O)[C@H]([C@@H](C)O)NC(=O)[C@@H]2CCCN2C(=O)[C@@H](C(C)C)NC(=O)[C@H](CC(C)C)NC(=O)[C@H](CCCNC(=N)N)NC(=O)[C@H]([C@@H](C)O)NC(=O)[C@@H]2CCCN2C(=O)[C@@H](Cc2ccccc2)NC1=O [XQ31, Cyclo (LvPTRLfPTR)] (cyclo(L[dF]PTRL[dV]PTR)) | 70.1575% and 70.5622% | 69.4 | 30 |
| CC(C)C[C@@H]1NC(=O)[C@H](CCCNC(=N)N)NC(=O)[C@H]([C@@H](C)O)NC(=O)[C@@H]2CCCN2C(=O)[C@@H](Cc2ccccc2)NC(=O)[C@H](CC(C)C)NC(=O)[C@H](CCCNC(=N)N)NC(=O)[C@H]([C@@H](C)O)NC(=O)[C@@H]2CCCN2C(=O)CNC1=O [XQ32, Cyclo (LgPTRLfPTR)] (cyclo(GPTRL[dF]PTRL)) | 69.874% and 69.5698% | 69.3 | 30 |
| CC(C)C[C@@H]1NC(=O)[C@H](CCCNC(=N)N)NC(=O)[C@H]([C@@H](C)O)NC(=O)[C@@H]2C[C@@H](O)CN2C(=O)[C@@H](Cc2ccccc2)NC(=O)[C@H](CC(C)C)NC(=O)[C@H](CCCNC(=N)N)NC(=O)[C@H]([C@@H](C)O)NC(=O)[C@@H]2CCCN2C(=O)[C@@H](Cc2ccccc2)NC1=O [XQ33, Cyclo (Lf(Hyp)TRLfPTR)] (cyclo([Hyp]TRL[dF]PTRL[dF])) | 98.2995% and 98.5649% | 97.1 | 2 |
| CC(C)C[C@@H]1NC(=O)[C@H](CCCNC(=N)N)NC(=O)[C@H]([C@@H](C)O)NC(=O)[C@@H]2CCCN2C(=O)[C@@H](Cc2ccccc2)NC(=O)[C@H](CC(C)C)NC(=O)[C@H](CCCNC(=N)N)NC(=O)[C@H]([C@@H](C)O)NC(=O)[C@@H]2CCCN2C(=O)[C@@H](C)NC1=O [XQ34, Cyclo (LaPTRLfPTR)] (cyclo(L[dA]PTRL[dF]PTR)) | 102.306% and 102.914% | 103 | 0 |
| CC(C)C[C@@H]1NC(=O)[C@H](CCCNC(=N)N)NC(=O)[C@H]([C@@H](C)O)NC(=O)[C@@H]2CCCN2C(=O)[C@@H](Cc2ccccc2)NC(=O)[C@H](CC(C)C)NC(=O)[C@H](CCCNC(=N)N)NC(=O)[C@H]([C@@H](C)O)NC(=O)[C@H](C)NC(=O)[C@@H](Cc2ccccc2)NC1=O [XQ35, Cyclo (LfATRLfPTR)] (cyclo(ATRL[dF]PTRL[dF])) | 106.53% and 106.617% | 106 | 0 |
| CC(C)C[C@@H]1NC(=O)[C@H](CCCNC(=N)N)NC(=O)[C@H]([C@@H](C)O)NC(=O)[C@@H]2CCCN2C(=O)[C@@H](Cc2ccccc2)NC(=O)[C@H](CC(C)C)NC(=O)[C@H](CCCNC(=N)N)NC(=O)[C@H](C)NC(=O)[C@@H]2CCCN2C(=O)[C@@H](Cc2ccccc2)NC1=O [XQ36, Cyclo (LfPARLfPTR)] (cyclo(ARL[dF]PTRL[dF]P)) | 88.7067% and 87.9053% | 89.5 | 11 |
| CC(C)C[C@@H]1NC(=O)[C@H](CCCNC(=N)N)NC(=O)[C@H]([C@@H](C)O)NC(=O)[C@@H]2CCCN2C(=O)[C@@H](Cc2ccccc2)NC(=O)[C@H](C)NC(=O)[C@H](CCCNC(=N)N)NC(=O)[C@H]([C@@H](C)O)NC(=O)[C@@H]2CCCN2C(=O)[C@@H](Cc2ccccc2)NC1=O [XQ37, Cyclo (AfPTRLfPTR)] (cyclo(A[dF]PTRL[dF]PTR)) | 81.1407% and 81.3464% | 81 | 18 |
| CC(C)C[C@@H]1NC(=O)[C@H](CCCNC(=N)N)NC(=O)[C@H](C(C)C)NC(=O)[C@@H]2CCCN2C(=O)[C@@H](Cc2ccccc2)NC(=O)[C@H](CC(C)C)NC(=O)[C@H](CCCNC(=N)N)NC(=O)[C@H](C(C)C)NC(=O)[C@@H]2CCCN2C(=O)[C@@H](Cc2ccccc2)NC1=O [XQ38, Cyclo (LfPVRLfPVR)] (cyclo(L[dF]PVRL[dF]PVR)) | 112.545% and 112.328% | 113 | 0 |

From PMC10545747, “Development of cyclopeptide inhibitors of cGAS targeting protein-DNA interaction and phase separation” (Nature Communications, 2023)
